Measurements: ChEMBL document CHEMBL4689842, “EUbOPEN Chemogenomics Library wave 1” (2021)

Legend:
Format in all cases: toxicity, cell-based
HEK-293T = experiment: Incucyte cell viability with HEK293T; details: human, 10 µM, compound concentration 10 uM
Fibroblast = experiment: Incucyte cell viability with human fibroblast; details: 10 µM, compound concentration 10 uM
U2OS = experiment: Incucyte cell viability with U2OS; details: human, 10 µM, compound concentration 10 uM
[1] = 0 h, replicate number 1, timepoint 0 hours
[2] = 0 h, replicate number 2, timepoint 0 hours
[3] = 6 h, replicate number 1, timepoint 6 hours
[4] = 12 h, replicate number 1, timepoint 12 hours
[5] = 18 h, replicate number 1, timepoint 18 hours
[6] = 24 h, replicate number 1, timepoint 24 hours
[7] = 12 h, replicate number 2, timepoint 12 hours
[8] = 18 h, replicate number 2, timepoint 18 hours
[9] = 24 h, replicate number 2, timepoint 24 hours
[10] = 6 h, replicate number 2, timepoint 6 hours
Also: filed as whole numbers so only -1 and 0 and 1 occur.

Row | Compound | Growth Rate (HEK-293T; [1]) | Growth Rate (HEK-293T; [2]) | Growth Rate (HEK-293T; [3]) | Growth Rate (HEK-293T; [4]) | Growth Rate (HEK-293T; [5]) | Growth Rate (HEK-293T; [6]) | Growth Rate (Fibroblast; [1]) | Growth Rate (Fibroblast; [3]) | Growth Rate (Fibroblast; [4]) | Growth Rate (Fibroblast; [7]) | Growth Rate (Fibroblast; [5]) | Growth Rate (Fibroblast; [8]) | Growth Rate (Fibroblast; [6]) | Growth Rate (U2OS; [2]) | Growth Rate (U2OS; [10]) | Growth Rate (U2OS; [4]) | Growth Rate (U2OS; [5]) | Growth Rate (U2OS; [6]) | Growth Rate (U2OS; [1]) | Growth Rate (U2OS; [3]) | also measured
1 | CC(C)(C(=O)O)c1ccc(C(O)CCCN2CCC(C(O)(c3ccccc3)c3ccccc3)CC2)cc1.Cl (configuration not stated) [FEXOFENADINE HYDROCHLORIDE] | 1 | 0 | 1 | 1 | 1 | 1 | 0 | 0 | 0 | 1 | 0 | 1 | 0 | 0 | 0 | 1 | 1 | 1 |  |  | Growth Rate (Fibroblast; [2]): 1; Growth Rate (Fibroblast; [9]): 1; Growth Rate (U2OS; [8]): 0; Growth Rate (U2OS; [9]): 0
2 | O=C(Nc1nc2cccc(-c3ccc(CN4CCS(=O)(=O)CC4)cc3)n2n1)C1CC1 [FILGOTINIB] | 0 |  | 0 | 0 | 0 | 0 | 0 | 1 | 0 |  | 0 |  | 0 |  | 0 | 0 | 0 | 0 | 1 | 1 | Growth Rate (Fibroblast; [10]): 0
3 | CC(C)(C)OC(=O)N1CCCC1CNC1CCC(c2cc(F)ccc2F)(S(=O)(=O)c2ccc(Cl)cc2)CC1 (configuration not stated) [GSI-NC] | 0 | 1 | 0 | 1 | 1 | 1 |  | 0 | 0 |  | 0 |  | 0 |  |  | 0 | 0 | 0 | 0 | 0 | Growth Rate (HEK-293T; [7]): 0; Growth Rate (HEK-293T; [9]): 0; Growth Rate (Fibroblast; [2]): 0; Growth Rate (Fibroblast; [10]): 1
4 | CC(C)(Sc1ccc(CCN(CCCCC2CCCCC2)C(=O)NC2CCCCC2)cc1)C(=O)O [GW7647] | 1 | 0 | 0 | 0 | 0 | 0 | 0 | 0 | 0 |  | 1 |  | 0 |  | 1 | 1 | 1 | 1 | 0 |  | Growth Rate (HEK-293T; [10]): 1; Growth Rate (HEK-293T; [7]): 1; Growth Rate (HEK-293T; [8]): 1; Growth Rate (Fibroblast; [9]): 1
5 | Cc1oncc1C(=O)Nc1ccc(C(F)(F)F)cc1 [LEFLUNOMIDE] | 1 | 0 | 0 | 1 | 1 | 0 | 0 | 1 | 1 | 0 | 1 | 0 | 1 | 0 | 1 | 1 | 1 | 1 |  |  | Growth Rate (HEK-293T; [10]): 1; Growth Rate (HEK-293T; [8]): 0; Growth Rate (HEK-293T; [9]): 1; Growth Rate (Fibroblast; [10]): 0; Growth Rate (Fibroblast; [9]): 0
6 | N[C@@H](Cc1cc(I)c(Oc2ccc(O)c(I)c2)c(I)c1)C(=O)O [LIOTHYRONINE] | 0 |  | 1 | 1 | 1 | 1 | 0 | 0 | 0 |  | 0 | 1 | 0 |  | 1 | 1 | 1 | 1 | 0 |  | Growth Rate (HEK-293T; [7]): 0; Growth Rate (HEK-293T; [8]): 0; Growth Rate (HEK-293T; [9]): 0; Growth Rate (Fibroblast; [9]): 1
7 | O=C1O[C@]2(CC[C@H](C(=O)Nc3ccn(-c4ccccc4F)n3)CC2)c2cnccc21 [MK-0557] | 0 |  | 0 | 0 | 0 | 0 | 0 | 0 | 0 | 1 | 0 | 1 | 0 | 0 | 1 | 1 | 1 | 0 |  |  | Growth Rate (Fibroblast; [9]): 1; Growth Rate (U2OS; [9]): 1
8 | C[C@@H]1CN(c2cc(-c3n[nH]c4ccc(OC5(C)CC5)cc34)ncn2)C[C@H](C)O1 [MLi-2] | 0 | 1 | 0 | 1 | 1 | 1 | 0 | 1 | 1 | 0 | 1 | 0 | 0 | 0 |  | 1 | 1 | 1 |  | 1 | Growth Rate (HEK-293T; [9]): 0; Growth Rate (Fibroblast; [10]): 0
9 | O=S(=O)(NC1CCC(c2cc(F)ccc2F)(S(=O)(=O)c2ccc(Cl)cc2)CC1)C(F)(F)F (configuration not stated) [MRK-560] | 0 | 1 | 1 | 0 | 0 | 0 | 0 |  | 1 | 0 | 1 |  | 1 |  | 0 | 1 | 0 | 1 | 1 | 1 | Growth Rate (Fibroblast; [10]): 1; Growth Rate (Fibroblast; [9]): 0; Growth Rate (U2OS; [9]): 0
10 | CC(=O)c1c(NS(C)(=O)=O)c2cc(-c3ccc(Cl)cc3)c(-c3ccc(Cl)cc3Cl)nc2n(C)c1=O [MRL-CB1-NC] | 1 | 0 | 0 | 0 | 0 | 0 | 0 | 0 | 0 |  | 0 |  | 0 | 1 | 1 | 1 | 1 | 1 | 0 |  | Growth Rate (HEK-293T; [7]): 1
11 | Cc1ccc(-c2cnc([C@@]3(O)CC[C@H](C(=O)O)C(C)(C)C3)s2)cc1Nc1cccc(C(F)(F)F)n1 [MRL-SYKi-NC] | 0 | 1 | 0 | 1 | 1 | 1 |  | 0 | 0 |  | 0 |  | 0 |  |  | 0 | 0 | 0 | 0 | 0 | Growth Rate (HEK-293T; [7]): 0; Growth Rate (HEK-293T; [9]): 0; Growth Rate (Fibroblast; [2]): 0; Growth Rate (U2OS; [7]): 1; Growth Rate (U2OS; [8]): 1; Growth Rate (U2OS; [9]): 1
12 | CO[C@@H](C)c1c(Nc2ccc([C@@H](N(C)C(=O)C3CCS(=O)(=O)CC3)C(F)(F)F)cc2)cnc2cc(Cl)nn12 [NVS-MALT1-C] | 1 |  | 0 | 0 | 0 | 0 | 0 | 0 | 1 | 0 | 1 |  | 1 | 1 |  | 1 | 0 | 1 | 0 | 0 | Growth Rate (U2OS; [9]): 0
13 | OCCn1cc(-c2cnc3nnn(Cc4ccc5ncccc5c4)c3n2)cn1 [PF-04217903] | 1 |  | 0 | 1 | 1 | 1 | 0 | 1 |  | 0 | 1 | 0 | 1 | 0 | 0 | 1 | 1 | 1 |  | 1 | Growth Rate (Fibroblast; [10]): 0; Growth Rate (U2OS; [7]): 0; Growth Rate (U2OS; [8]): 0; Growth Rate (U2OS; [9]): 0
14 | CCC[C@H](Oc1cc(C)c(-n2cc(C(F)(F)F)cn2)c(C)c1)c1ccc(C(=O)NCCC(=O)O)cc1 [PF-06291874] | 1 | 0 | 0 | 0 | 0 | 0 | 0 | 1 | 0 |  | 0 |  | 1 |  | 0 | 1 | 0 | 1 |  |  | Growth Rate (U2OS; [8]): 1
15 | CNC[C@H](O)c1cccc(O)c1 [PHENYLEPHRINE] | 0 |  | 0 | 0 | 0 | 1 | 1 |  | 1 |  |  | 1 |  | 0 | 0 | 1 | 1 | 1 |  |  | Growth Rate (HEK-293T; [9]): 0; Growth Rate (Fibroblast; [2]): 0
16 | N#Cc1c[nH]c2c(C(=O)N3CCN(CCc4ccc(F)cc4)CC3)cccc12 [PRUVANSERIN] |  | 0 | 0 | 0 | 0 | 0 | 0 | 0 | 0 |  | 0 |  | 0 |  | 0 | 1 | 0 | 0 | 1 |  | Growth Rate (U2OS; [7]): 0; Growth Rate (U2OS; [8]): 1
17 | CN(C)C(=O)c1cc2cnc(Nc3ccc(N4CCNCC4)cn3)nc2n1C1CCCC1 [RIBOCICLIB] | 0 | 1 | 1 |  | 1 | 1 | 0 |  |  | 0 |  | 1 | 1 |  | 1 | 0 | 0 | 0 | 0 | 0 | Growth Rate (HEK-293T; [10]): 0; Growth Rate (HEK-293T; [7]): 0; Growth Rate (HEK-293T; [8]): 0; Growth Rate (HEK-293T; [9]): 0; Growth Rate (Fibroblast; [10]): 0; Growth Rate (U2OS; [7]): 1; Growth Rate (U2OS; [8]): 1; Growth Rate (U2OS; [9]): 1
18 | CC[C@H](CO)Nc1nc(NCc2ccccc2)c2ncn(C(C)C)c2n1 [SELICICLIB] | 0 | 1 |  |  | 1 | 0 |  | 0 | 0 |  | 0 |  | 0 | 0 |  | 0 | 0 | 0 | 1 | 0 | Growth Rate (HEK-293T; [10]): 0; Growth Rate (HEK-293T; [7]): 0; Growth Rate (Fibroblast; [2]): 0; Growth Rate (U2OS; [7]): 1
